The source of these data is PubChem BioAssay AID624129 (Sanford-Burnham Center for Chemical Genomics, 2012).

The target in this test is C-X-C chemokine receptor type 6 (Homo sapiens) (UniProt O00574). Description: CXCR6 receptor antagonists, dose response, cell-based, beta-arrestin, DiscoveRx, APJ panel, uHTS hits (AID 624129). As to conditions: CXCR6 beta-arrestin (DiscoveRx) antagonist cell assay; for outcome: CXCR6, dose range 1; for inhibition: CXCR6, run 2, dose range 1, at 79 µM (top of the series).
C-X-C chemokine receptor type 6 (Homo sapiens), sequence (O00574 whole entry, looked up): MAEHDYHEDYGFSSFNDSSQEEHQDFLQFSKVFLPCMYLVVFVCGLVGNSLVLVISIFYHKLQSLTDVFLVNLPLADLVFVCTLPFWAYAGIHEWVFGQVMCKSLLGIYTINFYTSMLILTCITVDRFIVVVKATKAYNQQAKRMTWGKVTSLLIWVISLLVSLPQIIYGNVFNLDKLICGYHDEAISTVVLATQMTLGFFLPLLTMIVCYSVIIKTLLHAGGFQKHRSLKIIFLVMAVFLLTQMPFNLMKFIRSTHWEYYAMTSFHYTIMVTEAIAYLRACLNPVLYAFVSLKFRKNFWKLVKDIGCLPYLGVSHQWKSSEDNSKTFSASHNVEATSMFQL

[1] abbreviates: CXCR6, dose range 1, mean IC50 across replicates.

Active and inactive are the calls of the source. How the calls were made is not given here.

Broadly, the IC50 is the midpoint of a concentration-inhibition curve. Lower therefore signals inhibition by little substance. One may read the inhibition as the drop in the measured response relative to a control, in per cent. On to `Cc1ccc(-n2c(SCCN)nnc2-c2cccc(C)c2)cc1`, for which the result was inactive and the inhibition was 76.2%. The IC50 under setting [1] is 66.9 µM. For the same compound, the IC50 (CXCR6, run 1, dose range 2) is 66.8 µM. Moreover, where the note is “CXCR6, run 2, dose range 2”, the IC50 was found to be 67 µM.

As to `CC(C)[C@H](NC(=O)OC(C)(C)C)c1nnc(S(=O)(=O)Cc2c(F)cccc2Cl)o1`, the result was inactive and the inhibition is 111%. Under setting [1], this compound yielded an IC50 of 13.3 µM. This compound returned an IC50 (CXCR6, run 1, dose range 2) of 12.9 µM. Also, where the note is “CXCR6, run 2, dose range 2”, the IC50 is 13.8 µM.

For `COc1cc(/C=C/C(=O)c2ccc(C)c([N+](=O)[O-])c2)cc(OC)c1O`, the result was inactive and the inhibition was 75.1%. The compound further registered an IC50 under setting [1] of 19.4 µM. The IC50 (CXCR6, run 1, dose range 2) is 16.4 µM. The same compound displayed an IC50 (CXCR6, run 2, dose range 2) of 22.5 µM.

For `C=CCSC1=N/C(=C\c2cc(OCC)c(OC(C)=O)c([N+](=O)[O-])c2)C(=O)S1`, the result was inactive and the inhibition was 96.9%. The same compound came in with an IC50 under setting [1] of 47.2 µM. Also, the IC50 (CXCR6, run 1, dose range 2) was found to be 61 µM. This compound also had an IC50 (CXCR6, run 2, dose range 2) of 33.4 µM.

For the compound `Cc1ccc(NS(=O)(=O)c2cc([N+](=O)[O-])ccc2NNC(=S)Nc2cc(C)ccc2C)c(C)c1`, the outcome was inactive and the inhibition came out at 114%. For the same compound, the IC50 under setting [1] worked out at 33 µM. Also, the IC50 (CXCR6, run 1, dose range 2) stood at 21.2 µM. Moreover, where the note is “CXCR6, run 2, dose range 2”, the IC50 was 44.8 µM.

`N#C/C(=C/c1ccc(-c2ccc([N+](=O)[O-])cc2)o1)C(=O)Nc1nc(-c2cccs2)cs1`: the result was inactive and the inhibition turned out to be 90.2%. The same compound came in with an IC50 under setting [1] of 38.1 µM. The concentration for half-maximal inhibition (IC50) (CXCR6, run 1, dose range 2) amounted to 44.7 µM. Where the note is “CXCR6, run 2, dose range 2”, this compound returned an IC50 of 31.5 µM.

`COc1cccc(/C=C2/CCC(CN(C)C)C2=O)c1` (stereo not given): the result was inactive and the inhibition was determined as 111%. The IC50 under setting [1] turned out to be 19.4 µM. For the same compound, the half-maximal inhibitory concentration (IC50) (CXCR6, run 1, dose range 2) was 20.6 µM. For the same compound, the IC50 (CXCR6, run 2, dose range 2) stood at 18.2 µM.

As to `Cc1ccc(NC(=S)NNc2ncc(C(F)(F)F)cc2Cl)cc1`, the outcome was inactive and the inhibition came to 105%. In addition, the IC50 under setting [1] is 13.5 µM. Moreover, the IC50 (CXCR6, run 1, dose range 2) was found to be 10.4 µM. Where the note is “CXCR6, run 2, dose range 2”, this compound yielded an IC50 of 16.6 µM.

On to `CCOc1cc(/C=C2\N=C(SC)SC2=O)cc([N+](=O)[O-])c1OC(C)=O`, for which the result was inactive and the inhibition worked out at 98.2%. This compound had an IC50 under setting [1] of 28.3 µM. For the setting “CXCR6, run 1, dose range 2”, the IC50 stood at 27.7 µM. Moreover, the IC50 (CXCR6, run 2, dose range 2) worked out at 28.8 µM.

For the compound `CC(Oc1cccc(Br)c1)C(=O)NNC(=O)c1ccccn1` (stereo not given), the result was inactive and the inhibition is 105%. For the same compound, under setting [1], the IC50 was 14.4 µM. For the setting “CXCR6, run 1, dose range 2”, this compound displayed an IC50 of 12 µM. The compound further had an IC50 (CXCR6, run 2, dose range 2) of 16.9 µM.

Regarding `COc1cc(/C=C/[N+](=O)[O-])ccc1OC(=O)c1cccnc1`, the result was inactive and the inhibition was found to be 108%. Also, the IC50 under setting [1] was determined as 25.5 µM. The concentration for half-maximal inhibition (IC50) (CXCR6, run 1, dose range 2) was determined as 19.1 µM. The IC50 (CXCR6, run 2, dose range 2) was found to be 31.9 µM.

Turning to `O=C1C=CC(=O)N1c1ccc(N2CCCCC2)cc1`, the result was inactive and the inhibition turned out to be 113%. The compound further returned an IC50 under setting [1] of 18.3 µM. Also, where the note is “CXCR6, run 1, dose range 2”, the IC50 stood at 17.5 µM. Further, the IC50 (CXCR6, run 2, dose range 2) was 19.1 µM.

As to `Cc1cc(O)ccc1NC(=S)NC(=O)c1cncc(Br)c1`, the outcome was inactive and the inhibition was 68.1%. For the same compound, the IC50 under setting [1] was found to be 16.3 µM. Further, the IC50 (CXCR6, run 1, dose range 2) amounted to 17.3 µM. Further, the IC50 (CXCR6, run 2, dose range 2) is 15.4 µM.

As for `C=C1C(=O)[C@]23C[C@H]1CCC2[C@@]1(C)C(C[C@@H]3O)[C@](C)(C(=O)OC)CC[C@@H]1O` (stereo not given in full), the result was inactive and the inhibition was 109%. Moreover, under setting [1], the IC50 came to 11.5 µM. For the same compound, for the setting “CXCR6, run 1, dose range 2”, the IC50 was 11.6 µM. In addition, the IC50 (CXCR6, run 2, dose range 2) was found to be 11.4 µM.

Take `COc1ccc(NC(=S)NNc2ccc([N+](=O)[O-])cc2S(=O)(=O)Nc2ccc(C)cc2C)cc1`: the outcome was inactive and the inhibition came to 106%. Besides, the IC50 under setting [1] came to 35.1 µM. This compound also returned an IC50 (CXCR6, run 1, dose range 2) greater than 79 µM. Moreover, the IC50 (CXCR6, run 2, dose range 2) was 35.1 µM.

Consider `CCOc1cc(/C=C2\C(=O)N(c3cccc(C(F)(F)F)c3)C(=O)c3ccccc32)ccc1O`, for which the outcome was inactive and the inhibition was 81%. Under setting [1], this compound returned an IC50 of 49.2 µM. For the same compound, the IC50 (CXCR6, run 1, dose range 2) is 49.2 µM. Moreover, the IC50 (CXCR6, run 2, dose range 2) was greater than 79 µM.

As for `N#Cc1c([N+](=O)[O-])cc([N+](=O)[O-])cc1S(=O)(=O)Cc1ccccc1`, the result was inactive and the inhibition worked out at 114%. Under setting [1], the IC50 was 11.8 µM. The IC50 (CXCR6, run 1, dose range 2) turned out to be 11.1 µM. For the setting “CXCR6, run 2, dose range 2”, this compound had an IC50 of 12.6 µM.

For the compound `O=[N+]([O-])c1ccc(N/N=C/c2sc(N3CCOCC3)nc2-c2ccccc2)c(S(=O)(=O)Nc2ccccc2Cl)c1`, the outcome was inactive and the inhibition was 95.7%. Further, the IC50 under setting [1] came to 27.6 µM. The compound further came in with an IC50 (CXCR6, run 1, dose range 2) of 27.6 µM. Also, the IC50 (CXCR6, run 2, dose range 2) is greater than 79 µM.
